Assay results reported in patent US20210177879A1, “VITAMIN D RECEPTOR AGONIST” (Guanghzou University of Chinese Medicine, priority 2018, published 2021).

How the values were obtained:
[1] = test system: transplanted tumor of MB-231 pancreatic cancer cells; experiment: Transplanted tumor of MB-231 pancreatic cancer cells in nude mice; format: in vivo; conditions: 2 mg/kg in combination with 5-fluorouracil at half dose (20 mg/kg), once a day; effect comparable to 5-fluorouracil alone 40 mg/kg
Procedure: The SMB-231 pancreatic cancer cells were thawed, and cultured in a changed medium after 24 hours. Medium preparation method: 6% serum, 1% of a bispecific antibody+a 1640 basal medium. After grown to confluent, the cells were digested and subcultured to expand the number of cells. When reached the required amount, the cells were digested by trypsin, centrifuged, and resuspended in PBS to prepare a cell suspension of 1×10^8 cells/ml. A part of the cell suspension was added with the monotropein, desacetyl asperulosidic acid, asperuloside, and asperulosidic acid respectively, and the inhibition rate (%) of tumor cell proliferation by each of these different compounds was examined.
Male adult nude mice, which had the body weights of 20-24 g, were purchased from Guangdong Medical Laboratory Animal Center. After 7 days of adaptive feeding of the animals, except for the blank group, the remaining animals were injected with 0.2 ml of a SMB-231 pancreatic cancer cell suspension in PBS at ventrodorsal and scapula sites of them, the response conditions of the animals were observed, and the body weights of the animals were determined once a week. After 2 weeks of observation, the animals were grouped into the following groups according to tumor size: a blank group; a model group; a 5-fluorouracil control group (5-Full, 40 mg/kg); monotropein+5-fluorouracil (2 mg/kg monotropein+20 mg/kg 5-fluorouracil), desacetyl asperulosidic acid+5-fluorouracil (2 mg/kg desacetyl asperulosidic acid+20 mg/kg 5-fluorouracil), asperuloside+5-fluorouracil (2 mg/kg asperuloside+20 mg/kg 5-fluorouracil), asperulosidic acid+5-fluorouracil (2 mg/kg asperulosidic acid+20 mg/kg 5-fluorouracil), these groups being labeled as: Mo, As, Aa, Da. Each group included 8 animals; and administration was conducted once a day.
The status, death conditions, and eating and drinking conditions of the animals were observed daily. The body weights of the animals were determined once a week and the tumor size of the animals was determined every 4 days. The tumor volume of the animals was determined by using a vernier caliper. After 1 month of administration, the animals were sacrificed after blood was sampled from the orbit thereof, and the tumor was separated and weighed.

intestinal permeability = experiment: Determination of intestinal permeability in serum with FITC-dextran; format: in vivo, Balb/c mice; conditions: after third stage of modeling; monotropein high and low doses, 5-ASA 100 mg/kg
Procedure: Experimental method: 90 Balb/c mice of 6-8 weeks were purchased from the Experimental Animal Center in Guangzhou University of Chinese Medicine, weighed about 18-22 g, and subjected to adaptive feeding for 10 days. Modeling was divided into three stages. In the first stage, except for the normal group of animals being given saline injection, each of the other animals were intraperitoneally injected with a carcinogen AOM (10 mg/kg), and given free access to 2% DSS water from the next day for 7 days, and then given access to replaced regular drinking water for 14 days. In the second stage, the animals were given free access to 2% DSS water for 10 days, and then given access to replaced regular drinking water for 14 days. In the third stage, the animals were given free access to 2% DSS water for 10 days, and then given access to replaced regular drinking water for 11 days. […] The diet, water drinking and body weights of the animals were recorded daily and DAI scores were made, and the animals were killed and harvested at the 10th week. […] 25 μl of serum was taken and added with 100 μl PBS, and determined on a microplate reader for its fluorescence intensity, where the wavelength of the exciting light was 480 nm, and the wavelength of the emitting light was 520 nm. A standard curve was made and the sample concentration was calculated.

IL-6, IL-10, IL-1β = experiment: Determination of cytokines in intestinal tumor tissues by Elisa; format: in vivo, Balb/c mice; conditions: vs model group
Procedure: Experimental method: 90 Balb/c mice of 6-8 weeks were purchased from the Experimental Animal Center in Guangzhou University of Chinese Medicine, weighed about 18-22 g, and subjected to adaptive feeding for 10 days. Modeling was divided into three stages. In the first stage, except for the normal group of animals being given saline injection, each of the other animals were intraperitoneally injected with a carcinogen AOM (10 mg/kg), and given free access to 2% DSS water from the next day for 7 days, and then given access to replaced regular drinking water for 14 days. In the second stage, the animals were given free access to 2% DSS water for 10 days, and then given access to replaced regular drinking water for 14 days. In the third stage, the animals were given free access to 2% DSS water for 10 days, and then given access to replaced regular drinking water for 11 days. The normal group was given access to regular drinking water throughout the experiment. The diet, water drinking and body weights of the animals were recorded daily and DAI scores were made, and the animals were killed and harvested at the 10th week. In this experiment, the animals were divided into groups and administrated on the first day of a modeling period of the second stage, and the total number of groups was set to 5 groups. […]
The intestinal tumor tissues frozen and stored at −80° C. were taken and homogenized, and the homogenate was determined with a BCA kit for the total protein concentration thereof. The homogenate was diluted by 20 times and then determined by Elisa method for cytokines: IL-6, IL-10, and IL-1β. […]

O=C(O)C1=CO[C@@H](O[C@@H]2O[C@H](CO)[C@@H](O)[C@H](O)[C@H]2O)[C@H]2[C@@H]1C=C[C@]2(O)CO [monotropein]
tumor proliferation in SMB-231 tumor-bearing mice [1]: significantly inhibit tumor proliferation
intestinal permeability (FITC-dextran in serum) vs model group (intestinal permeability): significant differences
level of IL-10 in tumor tissues (IL-6, IL-10, IL-1β; high-dose monotropein (8 mg/kg) and positive drug 5-ASA (100 mg/kg)): no significant differences
level of IL-10 in tumor tissues (IL-6, IL-10, IL-1β; low-dose monotropein (2 mg/kg)): extremely significantly up-regulated
